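The compound was tested at five concentrations on cells cultured in 96-well plates, with a 48-hour exposure period. GI50: concentration for 50% inhibition of growth.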 Activity calls are given as the source filed them. Rule as the data show it: active = GI50 up to about 1.1 µM and inactive = higher. Square brackets hold non-standard residues; d marks the D form. Peptide text beside a SMILES is read from it. pGlu = O=C1CC[C@@H](C(=O)O)N1; Thz = O=C(O)[C@@H]1CSCN1
Key:
Test in all cases: DTP human tumour cell line panel, 48 h
[1] = test system: OVCAR-5
[2] = test system: Malme-3M
[3] = test system: HOP-62
[4] = test system: HL-60
[5] = test system: UACC-257
[6] = test system: M14
[7] = test system: OVCAR-3
[8] = test system: SR
[9] = test system: RPMI-8226
[10] = test system: COLO 205
[11] = test system: SF-539
[12] = test system: A498
[13] = test system: SF-295
[14] = test system: SK-MEL-5
[15] = test system: HT-29
[16] = test system: U-251
[17] = test system: NCI-H522
[18] = test system: MDA-MB-435
[19] = test system: SK-MEL-2
[20] = test system: TK-10

| Compound | GI50 [1] | GI50 [2] | GI50 [3] | GI50 [4] | GI50 [5] | GI50 [6] | GI50 [7] | GI50 [8] | GI50 [9] | GI50 [10] | GI50 [11] | GI50 [12] | GI50 [13] | GI50 [14] | GI50 [15] | GI50 [16] | GI50 [17] | GI50 [18] | GI50 [19] | GI50 [20] |
| --- | --- | --- | --- | --- | --- | --- | --- | --- | --- | --- | --- | --- | --- | --- | --- | --- | --- | --- | --- | --- |
| COC(=O)C1=C(OC(=O)/C(=C/c2ccccc2)c2ccc(Cl)cc2)C(C(=O)OC)[C@@]2(O)[C@@H](C(=O)OC)[C@H](C)C[C@@H]1[C@@H]2C(=O)OC (some centres not stated) | > 100 µM (inactive) | > 100 µM (inactive) | > 100 µM (inactive) | > 100 µM (inactive) | > 100 µM (inactive) | > 100 µM (inactive) | > 100 µM (inactive) | > 100 µM (inactive) | > 100 µM (inactive) | > 100 µM (inactive) | > 100 µM (inactive) | > 100 µM (inactive) | > 100 µM (inactive) | > 100 µM (inactive) | > 100 µM (inactive) | > 100 µM (inactive) | > 100 µM (inactive) | > 100 µM (inactive) | > 100 µM (inactive) | > 100 µM (inactive) |
| COc1cc(C(=O)OC2CC(C)=CC[C@@]3(C)CC[C@](O)(C(C)C)C23)ccc1O (some centres not stated) | 18 µM (inactive) | 18.6 µM (inactive) | 17.2 µM (inactive) | 31.6 µM (inactive) | 15.5 µM (inactive) | 17 µM (inactive) | 18.5 µM (inactive) | 25.5 µM (inactive) | 25.6 µM (inactive) | 20 µM (inactive) | 14.1 µM (inactive) | 18.9 µM (inactive) | 21.7 µM (inactive) | 17.5 µM (inactive) | 15.9 µM (inactive) | 31.3 µM (inactive) | 14.3 µM (inactive) | 40.5 µM (inactive) | 16.4 µM (inactive) | 15 µM (inactive) |
| Cc1cc(C(O)CNC(C)CCn2cnc3c2c(=O)n(C)c(=O)n3C)ccc1O (configuration not stated) | > 100 µM (inactive) | > 100 µM (inactive) | > 100 µM (inactive) |  | > 100 µM (inactive) | > 100 µM (inactive) | > 100 µM (inactive) | > 100 µM (inactive) | > 100 µM (inactive) | > 100 µM (inactive) | > 100 µM (inactive) | > 100 µM (inactive) | > 100 µM (inactive) | > 100 µM (inactive) | > 100 µM (inactive) | > 100 µM (inactive) | > 100 µM (inactive) | > 100 µM (inactive) | > 100 µM (inactive) | > 100 µM (inactive) |
| O=C(NCCc1n[nH]c2c1C(=O)C=C(Nc1ccccc1)C2=O)OCc1ccccc1 | > 100 µM (inactive) |  |  | > 100 µM (inactive) | > 100 µM (inactive) | > 100 µM (inactive) | > 100 µM (inactive) | > 100 µM (inactive) | > 100 µM (inactive) | > 100 µM (inactive) | > 100 µM (inactive) | > 100 µM (inactive) | > 100 µM (inactive) | > 100 µM (inactive) | > 100 µM (inactive) | > 100 µM (inactive) | > 100 µM (inactive) | > 100 µM (inactive) | > 100 µM (inactive) | > 100 µM (inactive) |
| O=C(NNC(=S)Nc1ccccc1)C12CC3CC(CC(C3)C1)C2 | 59.4 µM (inactive) | 20 µM (inactive) | 35.2 µM (inactive) | 7.01 µM (inactive) | 31.7 µM (inactive) | 13.8 µM (inactive) | 10.6 µM (inactive) | 0.252 µM (active) | 17.3 µM (inactive) | 20.7 µM (inactive) | 25.8 µM (inactive) | 21.1 µM (inactive) | 11.4 µM (inactive) | 8.53 µM (inactive) | 21.3 µM (inactive) | 12.9 µM (inactive) | 28.1 µM (inactive) | 23.7 µM (inactive) | 22.1 µM (inactive) | 39.5 µM (inactive) |
| COC1C(N)C(OC2C(Oc3cccc4c(O)c5c(=O)oc6ccc(C)c7c(=O)oc(c34)c5c67)OC(C)C(O)C2(C)O)OC(C)C1O (configuration not stated) | 0.27 µM (active) | < 0.0107 µM (active) | 0.0428 µM (active) | 0.0416 µM (active) | 0.0658 µM (active) | 0.0789 µM (active) | 0.108 µM (active) | < 0.215 µM (active) | < 0.01 µM (active) | 0.0456 µM (active) | < 0.0154 µM (active) | < 0.01 µM (active) | 0.0312 µM (active) | 0.031 µM (active) | < 0.0168 µM (active) | < 0.01 µM (active) | < 0.01 µM (active) | 0.0313 µM (active) | 0.0108 µM (active) | 0.0643 µM (active) |
| COc1cccc(N2N=C3c4ccccc4-n4c(nc5ccccc54)C3C2N)c1 (configuration not stated) | 47.2 µM (inactive) | 66.1 µM (inactive) | > 100 µM (inactive) | > 100 µM (inactive) | > 100 µM (inactive) | 34.1 µM (inactive) | > 100 µM (inactive) | 86.5 µM (inactive) | > 100 µM (inactive) | > 100 µM (inactive) | > 100 µM (inactive) | > 100 µM (inactive) | > 100 µM (inactive) | 20.7 µM (inactive) | > 100 µM (inactive) | > 100 µM (inactive) | > 100 µM (inactive) | 62.8 µM (inactive) | > 100 µM (inactive) | 92.9 µM (inactive) |
| CSc1c(C(=O)Nc2ccc(Cl)cc2)c(N)n(N)c(=O)c1C#N | 58.9 µM (inactive) | > 100 µM (inactive) |  | 78.7 µM (inactive) | > 100 µM (inactive) | 51.6 µM (inactive) | 48.8 µM (inactive) | > 100 µM (inactive) | 57.4 µM (inactive) | > 100 µM (inactive) | > 100 µM (inactive) | 36 µM (inactive) |  | > 100 µM (inactive) | > 100 µM (inactive) | > 100 µM (inactive) | 25.7 µM (inactive) | > 100 µM (inactive) | > 100 µM (inactive) | > 100 µM (inactive) |
| C[C@]12CC[C@H](O)CC1=CC[C@@H]1[C@@H]2CC[C@]2(C)C(=N/O)/C(=C/c3ccc([N+](=O)[O-])cc3)C[C@@H]12 | 1.61 µM (inactive) | 7.43 µM (inactive) | 0.619 µM (active) | 1.91 µM (inactive) | 3.65 µM (inactive) | 6.75 µM (inactive) | 1.76 µM (inactive) | 2.51 µM (inactive) | 3.59 µM (inactive) | 3.53 µM (inactive) | 4.09 µM (inactive) | 3.33 µM (inactive) | 0.45 µM (active) | 1.18 µM (inactive) | 6.15 µM (inactive) |  | 3.18 µM (inactive) | 8.38 µM (inactive) | 4.53 µM (inactive) |  |
| CCC(=O)O[C@H]1CC[C@H]2[C@@H]3CCC4=C/C(=N/OC(=O)c5cccc6cc7ccccc7nc56)CC[C@]4(C)[C@H]3CC[C@]12C | > 100 µM (inactive) | 29.2 µM (inactive) | 50.5 µM (inactive) | 44.3 µM (inactive) | 63.4 µM (inactive) | 64.1 µM (inactive) | 29 µM (inactive) | 67.9 µM (inactive) | 50.4 µM (inactive) | 41 µM (inactive) | 43.4 µM (inactive) | > 100 µM (inactive) |  | 15.2 µM (inactive) | 42.9 µM (inactive) | 51.9 µM (inactive) | 41.4 µM (inactive) | 38.8 µM (inactive) | 55.2 µM (inactive) |  |
| Cc1cc(C)c(O)c(CN2CCN(C(C)C)CCN(C(C)C)CC2)c1 | 18.7 µM (inactive) | 13.8 µM (inactive) |  | 11.7 µM (inactive) | 18.5 µM (inactive) | 12.4 µM (inactive) | 22.2 µM (inactive) | 17.9 µM (inactive) | 21.9 µM (inactive) | 18.6 µM (inactive) | 10.4 µM (inactive) | > 100 µM (inactive) | 15.7 µM (inactive) | > 10 µM (inactive) |  | 37 µM (inactive) | 16.1 µM (inactive) | 18 µM (inactive) | 37.8 µM (inactive) | 36.2 µM (inactive) |
| CC1(C)CCC[C@@]2(C)C1CC[C@@]1(CO)O[C@H](C3=CC(=O)OC3O)C[C@H]12 (some centres not stated) | 22.8 µM (inactive) | 11 µM (inactive) | 14.9 µM (inactive) | 1.66 µM (inactive) | 14.9 µM (inactive) | 11.8 µM (inactive) | 14.9 µM (inactive) | 2.71 µM (inactive) | 3.87 µM (inactive) | 11.1 µM (inactive) | 19.3 µM (inactive) | 15 µM (inactive) | 21.5 µM (inactive) | 5.38 µM (inactive) | 13 µM (inactive) | 15.1 µM (inactive) | 3.69 µM (inactive) | 11.5 µM (inactive) | 14.4 µM (inactive) | 19.7 µM (inactive) |
| COc1cc(Br)c(CC2C3=C(CCN2C(=O)C2CCC2)CC2(CC3)OCCO2)cc1O (configuration not stated) | > 100 µM (inactive) | 65 µM (inactive) | > 100 µM (inactive) | 46.7 µM (inactive) | 32.5 µM (inactive) | 62.5 µM (inactive) | 33.5 µM (inactive) | 28.1 µM (inactive) | 36.6 µM (inactive) | 18.2 µM (inactive) | > 100 µM (inactive) | 62.2 µM (inactive) | 49.7 µM (inactive) | 35.3 µM (inactive) | 24.2 µM (inactive) | > 100 µM (inactive) | 27.7 µM (inactive) | 23.6 µM (inactive) | > 100 µM (inactive) | 29.2 µM (inactive) |
| O=C1CC[C@@H](C(=O)N2CSC[C@H]2C(=O)O)N1 [PIDOTIMOD] ([pGlu]-[Thz]-OH) | > 100 µM (inactive) | > 100 µM (inactive) | > 100 µM (inactive) | > 100 µM (inactive) | > 100 µM (inactive) | > 100 µM (inactive) | > 100 µM (inactive) | > 100 µM (inactive) | > 100 µM (inactive) |  | > 100 µM (inactive) | > 100 µM (inactive) | > 100 µM (inactive) | > 100 µM (inactive) | > 100 µM (inactive) |  | > 100 µM (inactive) | > 100 µM (inactive) | > 100 µM (inactive) | > 100 µM (inactive) |
